Source: patent US20260256753A1, “USE OF AN OREXIN 2 RECEPTOR AGONIST FOR IMPROVING RESPIRATORY FUNCTION DURING SLEEP” (TAKEDA PHARMACEUTICAL COMPANY LIMITED, priority 2023, published 2026)

What was measured:
phrenic motoneurons = test: Electrophysiologic recording of phrenic motoneurons in rat isolated brainstem-spinal cord preparations; assay type: cell-based; conditions: C3-5 ventral root, versus vehicle control, FIG. 2
Procedure: Neonatal (postnatal day 1-4) rats were decapitated, and the brainstem-spinal cord was dissected in a bath containing ACSF. The cerebellum and pons were ablated. At least 30 min prior to the start of recording, the tissue was transferred in the recording solution in which the concentration of K+ was raised to 5 mM and that of Mg2+ was decreased to 0.5 mM to ensure production of long-term and stable rhythm (modified ACSF, in mM: NaCl 125, MgCl2 0.5, KCl 5, CaCl2 1, NaHCO3 25, NaH2PO4 1.25, glucose 30, pH 7.4). The tissues were glued on coverslips and transferred to a recording chamber and continuously perfused at 27±2° C. with mACSF at a flow rate of 2.3±0.2 mL/min. Activity of phrenic motoneurons was measured in electrophysiological recordings from C3-5 ventral root, outputs of phrenic motoneurons (J. J. Greer, J. C. Smith, J. L. Feldman, Respiratory and locomotor patterns generated in the fetal rat brain stem-spinal cord in vitro, J Neurophysiol 67 (4) (1992) 996-9; J. C. Smith, J. J. Greer, G. S. Liu, J. L. Feldman, Neural mechanisms generating respiratory pattern in mammalian brain stem-spinal cord in vitro. I. Spatiotemporal patterns of motor and medullary neuron activity, J Neurophysiol 64 (4) (1990) 1149-69), using a glass suction electrode. […] The rectification and integration was used for quantification of the activities of phrenic motoneurons because the spontaneous bursts detected in voltage signals are consisting of multiple positive and negative voltages from baseline (T. Sugita, et al.). […] Bursts were then automatically detected, and burst frequency was measured.
To evaluate the effects of vehicle (0.1% DMSO) on neuronal activities, after 5 min of stabilization, the neuronal activities under basal condition were recorded for 2-20 min, followed by recording with vehicle (0.1% DMSO) for 30-40 min. […] As vehicle (0.1% DMSO) had no significant effects on burst frequency of phrenic neurons, potential of drugs was assessed under vehicle (0.1% DMSO). […]

[1] = system: neurons in the pre-Bötzinger complex; test: Electrophysiologic recording of neurons in the pre-Bötzinger complex in rat medullary slices; assay type: cell-based; conditions: whole cell patch clamp, versus vehicle (0.1% DMSO) control, FIG. 1
From the text: (§1) Neonatal rats (postnatal day 1-10) were decapitated and the neuraxis was isolated in a chamber filled with oxygenated artificial cerebrospinal fluid solution (ACSF, in mM: NaCl 125, KCl 2.5, MgCl2 1, CaCl2 2, NaHCO3 25, NaH2PO4 1.25, glucose 25, pH 7.4). The cerebellum was removed, and the brainstem was mounted in the vibratome (VT 1000S; Leica, Milan, Italy) chamber filled with oxygenated gluconate cutting solution (in mM: Kgluconate 130, KCl 15, EGTA 0.2, HEPES 20, glucose 25, kynurenic acid 2, pH 7.4). Transverse medullary slices containing the pre-Bötzinger complex and hypoglossal nucleus were cut (400-600 μm thick). The slices were transferred at room temperature for 1 min in an oxygenated mannitol cutting solution (in mM: D-mannitol 225, glucose 25, KCl 2.5, NaH2PO4 1.25, NaHCO3 26, CaCl2 0.8, MgCl2 8, kynurenic acid 2, pH 7.4). Slices were then transferred in ACSF solution at 30° C. for 30 min and at room temperature for 30 min. At least 30 min prior to the start of recording, each slice was transferred in the recording solution in which the concentration of K+ was raised to 9 mM and that of Mg2+ was decreased to 0.5 mM to ensure the production of long-term and stable rhythm. […] Signals were acquired using Clampex 10.6 software (Axon, Molecular Devices, CA, USA) at a sampling rate of 10-20 kHz and filtered at 2-10 kHz using an 8-pole Bessel filter built within the software and analyzed using Clampfit 10.6 software (pClamp 10.6; Axon, Molecular Devices). […] Bursts were then automatically detected, and burst frequency was measured.
(§2) To evaluate the effects of vehicle (0.1% DMSO) on neuronal activities, after 5 min of stabilization, the neuronal activities under basal condition was recorded for 2-12 min, followed by recording in the presence of vehicle (0.1% DMSO) for 30 min. […]

hypoglossal motoneurons = test: Electrophysiologic recording of hypoglossal motoneurons in rat medullary slices; assay type: cell-based; conditions: whole cell patch clamp, versus vehicle control, FIG. 3
From the text: as §1, §2

OX2R [2] = target: T1, OX2R (Homo sapiens, UniProt O43614); conditions: OX2R-expressed recombinant cells; cited from earlier work
T1 sequence (O43614 1-444): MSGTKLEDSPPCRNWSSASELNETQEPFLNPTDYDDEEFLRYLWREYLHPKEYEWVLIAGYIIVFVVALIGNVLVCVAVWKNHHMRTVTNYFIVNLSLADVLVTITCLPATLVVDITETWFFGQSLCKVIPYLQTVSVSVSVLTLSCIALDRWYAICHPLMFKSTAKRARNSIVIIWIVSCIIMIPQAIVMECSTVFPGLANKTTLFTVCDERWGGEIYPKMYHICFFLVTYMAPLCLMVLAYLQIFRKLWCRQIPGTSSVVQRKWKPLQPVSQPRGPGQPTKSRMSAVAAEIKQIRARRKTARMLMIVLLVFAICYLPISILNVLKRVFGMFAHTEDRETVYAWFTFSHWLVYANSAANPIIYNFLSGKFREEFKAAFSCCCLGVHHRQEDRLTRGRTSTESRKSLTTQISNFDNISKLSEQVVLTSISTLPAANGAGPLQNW

OX2R [3] = target: T1, OX2R; conditions: OX2R-expressed recombinant cells; cited from earlier work; remark: listed apart in the source

Row | Molecule | burst frequency of phrenic motoneurons (phrenic motoneurons) | burst frequency in neurons in the pre-Bötzinger complex [1] | burst frequency of hypoglossal motoneurons (hypoglossal motoneurons) | recruitment of β-arrestins (OX2R [2]) | calcium mobilization (OX2R [3])
1 | CC(C)(O)C(=O)N1CC[C@H](NS(C)(=O)=O)[C@@H]1Cc1cccc(-c2cc(F)cc(F)c2)c1F [Compound B, N-((2S,3S)-1-(2-hydroxy-2-methylpropanoyl)-2-((2,3′,5′-trifluorobiphenyl-3-yl)methyl)pyrrolidin-3-yl) methanesulfonamide] | increased burst frequency | increased burst frequency | increased burst frequency | – | –
2 | COc1ccc(-c2cccc(C(=O)N(C)C)c2)cc1S(=O)(=O)Nc1cccc(NCCNC(=O)c2ccccc2N(C)C)c1 [YNT-185] | – | – | – | promote recruitment of β-arrestins | increase calcium mobilization
3 | Orexin-B: Orexin-B (OX-B) peptide | – | – | – | promote recruitment of β-arrestins | increase calcium mobilization
